Measurements from ChEMBL document CHEMBL4219190, “Studies on synthesis of novel pyrido[2,3-d]pyrimidine derivatives, evaluation of their antimicrobial activity and molecular docking” (Bioorg Med Chem Lett, 2018).
The source made the active and inactive calls.

Assays:
[1] = system: Bacillus subtilis; assay: Bactericidal activity against Bacillus subtilis MTCC 121 incubated for 24 hrs followed by transfer of microbial suspension to Mueller Hinton agar plates and measured after 24 hrs post transfer; assay type: functional
[2] = system: Bacillus subtilis; assay: Antibacterial activity against Bacillus subtilis MTCC 121 after 24 hrs by well diffusion method; assay type: functional
[3] = system: Staphylococcus aureus; assay: Antibacterial activity against Staphylococcus aureus MTCC 96 after 24 hrs by well diffusion method; assay type: functional; conditions: MTCC 96, 24 h
[4] = system: Staphylococcus aureus; assay: Antibacterial activity against Staphylococcus aureus MLS16 MTCC 2940 after 24 hrs by well diffusion method; assay type: functional
[5] = system: Micrococcus luteus; assay: Antibacterial activity against Micrococcus luteus MTCC 2470 after 24 hrs by well diffusion method; assay type: functional
[6] = system: Raoultella planticola; assay: Antibacterial activity against Klebsiella planticola MTCC 530 after 24 hrs by well diffusion method; assay type: functional
[7] = system: Escherichia coli; assay: Antibacterial activity against Escherichia coli MTCC 739 after 24 hrs by well diffusion method; assay type: functional
[8] = system: Pseudomonas aeruginosa; assay: Antibacterial activity against Pseudomonas aeruginosa MTCC 2453 after 24 hrs by well diffusion method; assay type: functional
[9] = system: Staphylococcus aureus; assay: Bactericidal activity against Staphylococcus aureus MTCC 96 incubated for 24 hrs followed by transfer of microbial suspension to Mueller Hinton agar plates and measured after 24 hrs post transfer; assay type: functional; conditions: MTCC 96, 24 h
[10] = system: Staphylococcus aureus; assay: Bactericidal activity against Staphylococcus aureus MLS16 MTCC 2940 incubated for 24 hrs followed by transfer of microbial suspension to Mueller Hinton agar plates and measured after 24 hrs post transfer; assay type: functional
[11] = system: Micrococcus luteus; assay: Bactericidal activity against Micrococcus luteus MTCC 2470 incubated for 24 hrs followed by transfer of microbial suspension to Mueller Hinton agar plates and measured after 24 hrs post transfer; assay type: functional
[12] = system: Raoultella planticola; assay: Bactericidal activity against Klebsiella planticola MTCC 530 incubated for 24 hrs followed by transfer of microbial suspension to Mueller Hinton agar plates and measured after 24 hrs post transfer; assay type: functional
[13] = system: Escherichia coli; assay: Bactericidal activity against Escherichia coli MTCC 739 incubated for 24 hrs followed by transfer of microbial suspension to Mueller Hinton agar plates and measured after 24 hrs post transfer; assay type: functional
[14] = system: Pseudomonas aeruginosa; assay: Bactericidal activity against Pseudomonas aeruginosa MTCC 2453 incubated for 24 hrs followed by transfer of microbial suspension to Mueller Hinton agar plates and measured after 24 hrs post transfer; assay type: functional
[15] = system: Candida albicans; assay: Antifungal activity against Candida albicans MTCC 183 after 24 hrs by well diffusion method; assay type: functional; conditions: MTCC 183, 24 h
[16] = system: Candida albicans; assay: Antifungal activity against Candida albicans MTCC 227 after 24 hrs by well diffusion method; assay type: functional
[17] = system: Candida albicans; assay: Antifungal activity against Candida albicans MTCC 854 after 24 hrs by well diffusion method; assay type: functional
[18] = system: Candida albicans; assay: Antifungal activity against Candida albicans MTCC 1637 after 24 hrs by well diffusion method; assay type: functional
[19] = system: Candida albicans; assay: Antifungal activity against Candida albicans MTCC 3018 after 24 hrs by well diffusion method; assay type: functional
[20] = system: Candida albicans; assay: Antifungal activity against Candida albicans MTCC 3017 after 24 hrs by well diffusion method; assay type: functional; conditions: MTCC 3017, 24 h
[21] = system: Candida albicans; assay: Antifungal activity against Candida albicans MTCC 3958 after 24 hrs by well diffusion method; assay type: functional
[22] = system: Candida albicans; assay: Antifungal activity against Candida albicans MTCC 4748 after 24 hrs by well diffusion method; assay type: functional
[23] = system: Candida albicans; assay: Antifungal activity against Candida albicans MTCC 7315 after 24 hrs by well diffusion method; assay type: functional; conditions: MTCC 7315, 24 h
[24] = system: Candida parapsilosis; assay: Antifungal activity against Candida parapsilosis MTCC 1744 after 24 hrs by well diffusion method; assay type: functional; conditions: MTCC 1744, 24 h
[25] = system: [Candida] aaseri; assay: Antifungal activity against Candida aaseri MTCC 1962 after 24 hrs by well diffusion method; assay type: functional; conditions: Yamadazyma aaseri, MTCC 1962, 24 h
[26] = system: Nakaseomyces glabratus; assay: Antifungal activity against Candida glabrata MTCC 3019 after 24 hrs by well diffusion method; assay type: functional; conditions: MTCC 3019, 24 h
[27] = system: Pichia kudriavzevii; assay: Antifungal activity against Candida krusei MTCC 3020 after 24 hrs by well diffusion method; assay type: functional
[28] = system: Pichia sporocuriosa; assay: Antifungal activity against Issatchenkia hanoiensis MTCC 4755 after 24 hrs by well diffusion method; assay type: functional; conditions: MTCC 4755, 24 h
[29] = system: Candida albicans; assay: Fungicidal activity against Candida albicans MTCC 183 incubated for 24 hrs followed by transfer of microbial suspension to Sabouraud dextrose agar plates and measured after 24 hrs post transfer; assay type: functional; conditions: MTCC 183, 24 h
[30] = system: Candida albicans; assay: Fungicidal activity against Candida albicans MTCC 227 incubated for 24 hrs followed by transfer of microbial suspension to Sabouraud dextrose agar plates and measured after 24 hrs post transfer; assay type: functional
[31] = system: Candida albicans; assay: Fungicidal activity against Candida albicans MTCC 854 incubated for 24 hrs followed by transfer of microbial suspension to Sabouraud dextrose agar plates and measured after 24 hrs post transfer; assay type: functional
[32] = system: Candida albicans; assay: Fungicidal activity against Candida albicans MTCC 1637 incubated for 24 hrs followed by transfer of microbial suspension to Sabouraud dextrose agar plates and measured after 24 hrs post transfer; assay type: functional
[33] = system: Candida albicans; assay: Fungicidal activity against Candida albicans MTCC 3017 incubated for 24 hrs followed by transfer of microbial suspension to Sabouraud dextrose agar plates and measured after 24 hrs post transfer; assay type: functional; conditions: MTCC 3017, 24 h
[34] = system: Candida albicans; assay: Fungicidal activity against Candida albicans MTCC 3018 incubated for 24 hrs followed by transfer of microbial suspension to Sabouraud dextrose agar plates and measured after 24 hrs post transfer; assay type: functional
[35] = system: Candida albicans; assay: Fungicidal activity against Candida albicans MTCC 3958 incubated for 24 hrs followed by transfer of microbial suspension to Sabouraud dextrose agar plates and measured after 24 hrs post transfer; assay type: functional
[36] = system: Candida albicans; assay: Fungicidal activity against Candida albicans MTCC 4748 incubated for 24 hrs followed by transfer of microbial suspension to Sabouraud dextrose agar plates and measured after 24 hrs post transfer; assay type: functional
[37] = system: Candida albicans; assay: Fungicidal activity against Candida albicans MTCC 7315 incubated for 24 hrs followed by transfer of microbial suspension to Sabouraud dextrose agar plates and measured after 24 hrs post transfer; assay type: functional; conditions: MTCC 7315, 24 h
[38] = system: Candida parapsilosis; assay: Fungicidal activity against Candida parapsilosis MTCC 1744 incubated for 24 hrs followed by transfer of microbial suspension to Sabouraud dextrose agar plates and measured after 24 hrs post transfer; assay type: functional; conditions: Lodderomyces parapsilosis, MTCC 1744, 24 h
[39] = system: [Candida] aaseri; assay: Fungicidal activity against Candida aaseri MTCC 1962 incubated for 24 hrs followed by transfer of microbial suspension to Sabouraud dextrose agar plates and measured after 24 hrs post transfer; assay type: functional; conditions: Yamadazyma aaseri, MTCC 1962, 24 h
[40] = system: Nakaseomyces glabratus; assay: Fungicidal activity against Candida glabrata MTCC 3019 incubated for 24 hrs followed by transfer of microbial suspension to Sabouraud dextrose agar plates and measured after 24 hrs post transfer; assay type: functional; conditions: MTCC 3019, 24 h
[41] = system: Pichia kudriavzevii; assay: Fungicidal activity against Candida krusei MTCC 3020 incubated for 24 hrs followed by transfer of microbial suspension to Sabouraud dextrose agar plates and measured after 24 hrs post transfer; assay type: functional
[42] = system: Pichia sporocuriosa; assay: Fungicidal activity against Issatchenkia hanoiensis MTCC 4755 incubated for 24 hrs followed by transfer of microbial suspension to Sabouraud dextrose agar plates and measured after 24 hrs post transfer; assay type: functional; conditions: MTCC 4755, 24 h
[43] = system: Bacillus subtilis; assay: Antibiofilm activity against Bacillus subtilis MTCC 121 after 24 hrs by crystal violet staining-based assay; assay type: functional, organism-based
[44] = system: Staphylococcus aureus; assay: Antibiofilm activity against Staphylococcus aureus MTCC 96 after 24 hrs by crystal violet staining-based assay; assay type: functional, organism-based; conditions: Staphylococcus aureus, MTCC 96, 24 h; read-out: IC50
[45] = system: Staphylococcus aureus; assay: Antibiofilm activity against Staphylococcus aureus MLS16 MTCC 2940 after 24 hrs by crystal violet staining-based assay; assay type: functional, organism-based
[46] = system: Pseudomonas aeruginosa; assay: Antibiofilm activity against Pseudomonas aeruginosa MTCC 2453 after 24 hrs by crystal violet staining-based assay; assay type: functional, organism-based
[47] = system: Raoultella planticola; assay: Antibiofilm activity against Klebsiella planticola MTCC 530 after 24 hrs by crystal violet staining-based assay; assay type: functional, organism-based

O=C(c1nc(-c2ccccc2)c2c(C(F)(F)F)cc(-c3ccccc3)nc2n1)N1CCN(CCO)CC1
2.7 µg/mL: IC50 [44]
5.4 µg/mL: IC50 ([47]; Klebsiella planticola, MTCC 530, 24 h, read-out: IC50)
15.6 µg/mL: MIC ([4]; MLS16 MTCC 2940, 24 h) | MIC ([5]; MTCC 2470, 24 h) | MIC ([6]; MTCC 530, 24 h) | MIC ([7]; MTCC 739, 24 h) | MIC ([8]; MTCC 2453, 24 h) | MBC [9] | MIC ([18]; MTCC 1637, 24 h) | MIC [26] | MIC [28] | MFC ([30]; MTCC 227, 24 h) | MFC ([31]; MTCC 854, 24 h)
31.2 µg/mL: MBC ([1]; MTCC 121, 24 h) | MIC ([2]; MTCC 121, 24 h) | MBC ([10]; MLS16 MTCC 2940, 24 h) | MBC ([11]; MTCC 2470, 24 h) | MBC ([12]; MTCC 530, 24 h) | MBC ([13]; MTCC 739, 24 h) | MBC ([14]; MTCC 2453, 24 h) | MIC [24] | MIC [25] | MFC ([32]; MTCC 1637, 24 h) | MFC [40] | MFC [42]
3.9 µg/mL: MIC [15] | MIC [20]
62.5 µg/mL: MIC [23] | MFC [37] | MFC [38] | MFC [39]
10.8 µg/mL: IC50 ([45]; Staphylococcus aureus, MLS16 MTCC 2940, 24 h, read-out: IC50) | IC50 ([46]; Pseudomonas aeruginosa, MTCC 2453, 24 h, read-out: IC50)
7.8 µg/mL: MIC [3] | MIC ([16]; MTCC 227, 24 h) | MIC ([17]; MTCC 854, 24 h) | MFC [29] | MFC [33]
inactive: MIC [19] | MIC [21] | MIC [22] | MIC [27] | MFC [34] | MFC [35] | MFC [36] | MFC [41]
21.6 µg/mL: IC50 ([43]; Bacillus subtilis, MTCC 121, 24 h, read-out: IC50)

O=C(NCc1ccccc1)c1nc(-c2ccccc2)c2c(C(F)(F)F)cc(-c3ccccc3)nc2n1
15.6 µg/mL: MIC [26] | MIC ([27]; MTCC 3020, 24 h)
Not Active: IC50 [43] | IC50 [45] | IC50 [46] | IC50 [47]
31.2 µg/mL: MIC [3] | MBC [9] | MIC [15] | MIC [20] | MIC [24] | MIC [25] | MIC [28] | MFC [40] | MFC ([41]; MTCC 3020, 24 h)
62.5 µg/mL: MIC ([22]; MTCC 4748, 24 h) | MIC [23] | MFC [29] | MFC [33] | MFC ([36]; MTCC 4748, 24 h) | MFC [37] | MFC [38] | MFC [39] | MFC [42]
21.6 µg/mL: IC50 [44]
inactive: MBC [1] | MIC [2] | MIC [4] | MIC [5] | MIC [6] | MIC [7] | MIC [8] | MBC [10] | MBC [11] | MBC [12] | MBC [13] | MBC [14] | MIC [16] | MIC [17] | MIC [18] | MIC [19] | MIC [21] | MFC [30] | MFC [31] | MFC [32] | MFC [34] | MFC [35]
